Experimental data taken from patent US20260258035A1, “FIVE-MEMBERED AND SIX-MEMBERED NITROGEN-CONTAINING COMPOUND, AND INTERMEDIATE, PREPARATION METHOD AND USE THEREOF” (HANGZHOU SYNRX THERAPEUTICS BIOMEDICAL TECHNOLOGY CO., LTD., priority 2022, published 2026).
Like-named read-outs stand apart in the source and are kept apart here.

Experiments:
[1] = tested on: Human breast squamous carcinoma cells HCC1806; experiment: Cell function assay (In-Cell Western, PAR/pADPr after MMS); format: cell-based
Procedure: 2. Cell Function Assay (In-Cell Western)
• 1) Human breast squamous carcinoma cells HCC1806 (ATCC) were seeded to the 384-well plate (Corning, #3764) at 20,000 cells/well, incubated for 24 h in a CO2 (5%) incubator at 37° C. to allow for complete adherence of the cells; • 2) 120 nL compounds or DMSO were added to the 384-well plate by Echo 550 (LABCYTE, #550) (final concentrations of compounds: 30000 nM, 10000 nM, 3000 nM, 1000 nM, 300 nM, 100 nM, 30 nM, 10 nM, 3 nM, 1 nM, 0 nM), and then the cells were incubated for 1 h in a CO2 (5%) incubator at 37° C.; • 3) 40 nL MMS (methyl mesylate, Sigma, #129925)(final concentration: 0.5 mM) was added to the plate by Echo 550, and the cells were treated for 1 h in a CO2 (5%) incubator at 37° C.

PARG = PARG (Homo sapiens, UniProt Q86W56); experiment: Biochemical assay (PARG, TFMU-ADPr substrate)
[2] = HCC1806, In-Cell Western, MMS treatment, read-out: IC50 (nM) in cell function assay
[3] = HCC1806, compound 1 h then 0.5 mM MMS 1 h, PAR/pADPr antibody, In-Cell Western, read-out: IC50 (nM) in cell function assay
[4] = 4 nM PARG, 66.2 uM TFMU-ADPr, 3 min at room temperature

Sequence of PARG (Q86W56 whole entry): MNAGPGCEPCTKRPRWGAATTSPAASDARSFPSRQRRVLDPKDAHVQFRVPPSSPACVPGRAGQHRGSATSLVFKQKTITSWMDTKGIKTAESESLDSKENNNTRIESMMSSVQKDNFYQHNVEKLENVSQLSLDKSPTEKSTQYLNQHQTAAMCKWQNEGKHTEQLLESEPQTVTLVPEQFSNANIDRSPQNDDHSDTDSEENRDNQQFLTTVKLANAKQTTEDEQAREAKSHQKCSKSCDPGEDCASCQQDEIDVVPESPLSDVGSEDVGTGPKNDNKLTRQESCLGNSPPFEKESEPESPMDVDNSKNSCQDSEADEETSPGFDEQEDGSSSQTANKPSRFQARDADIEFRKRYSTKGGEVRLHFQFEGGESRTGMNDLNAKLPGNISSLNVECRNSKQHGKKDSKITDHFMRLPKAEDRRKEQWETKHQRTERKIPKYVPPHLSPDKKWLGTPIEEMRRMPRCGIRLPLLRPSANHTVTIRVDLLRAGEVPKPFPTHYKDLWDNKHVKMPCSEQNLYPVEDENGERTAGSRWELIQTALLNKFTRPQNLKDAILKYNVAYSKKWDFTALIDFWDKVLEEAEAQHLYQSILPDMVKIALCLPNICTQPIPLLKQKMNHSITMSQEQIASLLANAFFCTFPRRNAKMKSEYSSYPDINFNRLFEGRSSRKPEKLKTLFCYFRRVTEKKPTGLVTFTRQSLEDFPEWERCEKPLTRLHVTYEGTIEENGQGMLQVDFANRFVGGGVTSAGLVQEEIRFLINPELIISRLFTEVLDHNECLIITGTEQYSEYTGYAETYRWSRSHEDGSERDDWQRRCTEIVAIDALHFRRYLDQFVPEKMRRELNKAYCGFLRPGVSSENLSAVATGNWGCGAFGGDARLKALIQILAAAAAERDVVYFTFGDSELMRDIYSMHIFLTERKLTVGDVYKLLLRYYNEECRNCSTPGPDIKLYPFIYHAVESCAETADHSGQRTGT

IC50 [1, 2] [nM] | IC50 [1, 3] [nM] | IC50 (PARG; [4]) [nM] | IC50 (PARG; PARG, TFMU-ADPr substrate) [nM] | SMILES | IC50 ([1]; HCC1806, 1 h, read-out: IC50 (nM) in cell function assay) [nM] | IC50 ([1]; HCC1806, read-out: IC50 (nM) in cell function assay) [nM]
2.01 | < 100 | < 100 | 0.76 | CC(C)C(=O)N1CCN(c2cc(S(=O)(=O)NC3(CF)CC3)cn3c(-c4nnc(C(F)F)s4)cnc23)CC1 [Example 14, 3-(5-(difluoromethyl)-1,3,4-thiadiazol-2-yl)-N-(1-(fluoromethyl)cyclopropyl)-8-(4-isobutyrylpiperazin-1-yl)imidazo[1,2-a]pyridine-6-sulfonamide] |  | 
4690 | > 1000 | < 100 | 5.37 | N#CC1(NS(=O)(=O)c2ccc3c(C4CCC5(CNC5)C4)nc(-c4nnc(C(F)F)s4)n3c2)CC1 (stereo not shown) [Example 26, N-(1-cyanocyclopropyl)-3-(5-(difluoromethyl)-1,3,4-thiadiazol-2-yl)-1-(2-azaspiro[3.4]octan-6-yl)imidazo[1,5-a]pyridine-6-sulfonamide] |  | 
4.7 | < 100 | < 100 | 0.84 | CC(C)C(=O)N1CCN(c2cc(S(=O)(=O)NC3(CF)CC3)cn3c(-c4nnc(C(F)F)s4)ncc23)CC1 [Example 31, 3-(5-(difluoromethyl)-1,3,4-thiadiazol-2-yl)-N-(1-(fluoromethyl)cyclopropyl)-8-(4-isobutyrylpiperazin-1-yl)imidazo[1,5-a]pyridine-6-sulfonamide] |  | 
155 | 100 to 500 | < 100 | 6.52 | CC(C)C(=O)N1CCN(c2cc(S(=O)(=O)NC3(C(F)F)CC3)cn3c(-c4nnc(C(F)F)s4)ncc23)CC1 [Example 33, 3-(5-(difluoromethyl)-1,3,4-thiadiazol-2-yl)-N-(1-(difluoromethyl)cyclopropyl)-8-(4-isobutyrylpiperazin-1-yl)imidazo[1,5-a]pyridine-6-sulfonamide] |  | 
13.2 | < 100 | < 100 | 2.72 | N#CC1(NS(=O)(=O)c2cc(N3CCC4(CC3)COC4)c3cnc(-c4nnc(C(F)F)s4)n3c2)CC1 [Example 39, N-(1-cyanocyclopropyl)-3-(5-(difluoromethyl)-1,3,4-thiadiazol-2-yl)-8-(2-oxa-7-azaspiro[3.5]nonan-7-yl)imidazo[1,5-a]pyridine-6-sulfonamide] |  | 
309 | 100 to 500 | < 100 | 8.37 | N#CC1(NS(=O)(=O)c2cc(N3CCC(F)(F)CC3)c3cnc(-c4nnc(C(F)F)s4)n3c2)CC1 [Example 40, N-(1-cyanocyclopropyl)-3-(5-(difluoromethyl)-1,3,4-thiadiazol-2-yl)-8-(4,4-difluoropiperidin-1-yl)imidazo[1,5-a]pyridine-6-sulfonamide] |  | 
145 | 100 to 500 | < 100 | 2.37 | CC1(O)CC2(CCN(c3cc(S(=O)(=O)NC4(C#N)CC4)cn4c(-c5nnc(C(F)F)s5)ncc34)CC2)C1 [Example 53, N-(1-cyanocyclopropyl)-3-(5-(difluoromethyl)-1,3,4-thiadiazol-2-yl)-8-(2-hydroxy-2-methyl-7-azaspiro[3.5]nonan-7-yl)imidazo[1,5-a]pyridine-6-sulfonamide] |  | 
3.52 | < 100 | < 100 | 3.75 | C[C@@H]1CN(c2cc(S(=O)(=O)NC3(C#N)CC3)cn3c(-c4nnc(C(F)F)s4)ncc23)CCN1C(=O)C1(C)CC1 [Example 62, (R)-N-(1-cyanocyclopropyl)-3-(5-(difluoromethyl)-1,3,4-thiadiazol-2-yl)-8-(3-methyl-4-(1-methylcyclopropane-1-carbonyl)piperazin-1-yl)imidazo[1,5-a]pyridine-6-sulfonamide] |  | 
1.36 | < 100 | < 100 | 2.12 | C[C@@H]1CN(c2cc(S(=O)(=O)NC3(CF)CC3)cn3c(-c4nnc(C(F)F)s4)ncc23)CCN1C(=O)C1(C)CC1 [Example 63, (R)-3-(5-(difluoromethyl)-1,3,4-thiadiazol-2-yl)-N-(1-(fluoromethyl)cyclopropyl)-8-(3-methyl-4-(1-methylcyclopropane-1-carbonyl)piperazin-1-yl)imidazo[1,5-a]pyridine-6-sulfonamide] |  | 
6.92 | < 100 | < 100 | 3.44 | CC(C)(F)C(=O)N1CCN(c2cc(S(=O)(=O)NC3(C#N)CC3)cn3c(-c4nnc(C(F)F)s4)ncc23)CC1 [Example 64, N-(1-cyanocyclopropyl)-3-(5-(difluoromethyl)-1,3,4-thiadiazol-2-yl)-8-(4-(2-fluoro-2-methylpropanoyl)piperazin-1-yl)imidazo[1,5-a]pyridine-6-sulfonamide] |  | 
18.2 | < 100 | < 100 | 2.89 | N#CC1(NS(=O)(=O)c2cc(N3CCC(CO)CC3)c3cnc(-c4nnc(C(F)F)s4)n3c2)CC1 [Example 66, N-(1-cyanocyclopropyl)-3-(5-(difluoromethyl)-1,3,4-thiadiazol-2-yl)-8-(4-(hydroxymethyl)piperidin-1-yl)imidazo[1,5-a]pyridine-6-sulfonamide] |  | 
40.1 | < 100 | < 100 | 8.83 | N#CC1(NS(=O)(=O)c2cc(N3CCOCC3)c3cnc(-c4nnc(C(F)F)s4)n3c2)CC1 [Example 67, N-(1-cyanocyclopropyl)-3-(5-(difluoromethyl)-1,3,4-thiadiazol-2-yl)-8-morpholinoimidazo[1,5-a]pyridine-6-sulfonamide] |  | 
34.7 | < 100 | < 100 | 25.1 | N#CC1(NS(=O)(=O)c2cc(N3CCC(O)CC3)c3cnc(-c4nnc(C(F)F)s4)n3c2)CC1 [Example 68, N-(1-cyanocyclopropyl)-3-(5-(difluoromethyl)-1,3,4-thiadiazol-2-yl)-8-(4-hydroxypiperidin-1-yl)imidazo[1,5-a]pyridine-6-sulfonamide] |  | 
0.67 | < 100 | < 100 | 1.32 | C[C@@H]1CN(c2cc(S(=O)(=O)NC3(C)CC3)cn3c(-c4nnc(C(F)F)s4)ncc23)CCN1C(=O)C1(C)CC1 [Example 71, (R)-3-(5-(difluoromethyl)-1,3,4-thiadiazol-2-yl)-8-(3-methyl-4-(1-methylcyclopropane-1-carbonyl)piperazin-1-yl)-N-(1-methylcyclopropyl)imidazo[1,5-a]pyridine-6-sulfonamide] |  | 
1.5 | < 100 | < 100 | 6.61 | CC(C)C(=O)N1CCN(c2cc(S(=O)(=O)NC3(C#N)CC3)cn3c(-c4nnc(C(F)F)s4)ncc23)C[C@H]1C [Example 74, (R)-N-(1-cyanocyclopropyl)-3-(5-(difluoromethyl)-1,3,4-thiadiazol-2-yl)-8-(4-isobutyryl-3-methylpiperazin-1-yl)imidazo[1,5-a]pyridine-6-sulfonamide] |  | 

SMILES | IC50 [1, 2] [nM] | IC50 [1, 3] [nM] | IC50 (PARG; [4]) [nM] | IC50 (PARG; PARG, TFMU-ADPr substrate) [nM] | IC50 ([1]; HCC1806, 1 h, read-out: IC50 (nM) in cell function assay) [nM] | IC50 ([1]; HCC1806, read-out: IC50 (nM) in cell function assay) [nM]
CC(C)C(=O)N1CCN(c2cc(S(=O)(=O)NC3(C#N)CC3)cc3c(-c4nnc(C(F)F)s4)cnn23)CC1 [Example 27, N-(1-cyanocyclopropyl)-3-(5-(difluoromethyl)-1,3,4-thiadiazol-2-yl)-7-(4-isobutyrylpiperazin-1-yl)pyrazolo[1,5-a]pyridine-5-sulfonamide] |  |  | < 100 | 4.98 | 100 to 500 | 76.3
